Reference: US4725591A, “β-lactamase inhibitory composition” (Takeda Chemical Industries, Ltd., priority 1980, dated 1988)

What was measured:
[1] = molecular target: T1, β-lactamase produced by Enterobacter cloacae IFO 12937 (Enterobacter cloacae, UniProt P05364); experiment: Inhibitor concentration required to inhibit β-lactamase (cephalosporinase) activity by 50%, micro-iodometric method; format: biochemical; details: Enterobacter cloacae IFO 12937 cephalosporinase; 0.05M phosphate buffer pH 7, 30° C., 10 minutes preincubation; cephalothin or ampicillin 0.1 mM; read-out: I50 (converted)
T1 construct: The β-lactamase produced by Enterobacter cloacae IFO 12937; endogenous in cells; host or cells: Enterobacter cloacae IFO 12937
T1 sequence (P05364 21-381): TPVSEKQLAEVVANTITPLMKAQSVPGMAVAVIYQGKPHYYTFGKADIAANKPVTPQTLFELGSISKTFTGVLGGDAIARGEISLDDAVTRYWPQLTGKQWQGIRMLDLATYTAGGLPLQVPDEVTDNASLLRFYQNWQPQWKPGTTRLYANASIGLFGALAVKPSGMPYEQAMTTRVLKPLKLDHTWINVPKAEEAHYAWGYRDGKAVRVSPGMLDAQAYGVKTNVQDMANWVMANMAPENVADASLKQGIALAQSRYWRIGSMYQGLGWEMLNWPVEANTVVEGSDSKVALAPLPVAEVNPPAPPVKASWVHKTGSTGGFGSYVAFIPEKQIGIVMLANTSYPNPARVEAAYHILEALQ
Description: Determination of the inhibitor concentration required to inhibit the enzyme activity by 50%
The β-lactamase produced by Enterobacter cloacae IFO 12937 is used as a typical example of cephalosporinase, and that produced by Staphylococcus aureus 1840 as typical example of penicillinase. The β-lactamase in incubated is 0.05M phosphate buffer (pH 7) with an appropriate dilution of an inhibitor preparation at 30° C. for 10 minutes. Cephalothin or ampicillin is then added in an amount sufficient to produce a final concentration of 0.1 mM, and the enzymatic reaction is allowed to proceed for 10 minutes. The enzyme activity is determined by the micro-iodometric method [Journal of general Microbiology, vol. 33, page 121 (1963)]. Hereinafter, the inhibitor concentration required to inhibit the enzyme activity by 50% is expressed as I50. The I50 values for Enterobacter cloaceae are shown in Table 1, and the I50 values for Staphylococcus aureus in Table 2.

[2] = test system: Citrobacter freundii TN 512; experiment: Synergy with Cefotiam, agar dilution MIC; format: cell-based; details: 18 hours; for MIC of Cefotiam with 1 μg/ml of Compound: Table 4, 1 μg/ml test compound in agar, inoculum 10^8 per ml
Description: (§1) The inoculum concentration is 10^8 per ml, and the medium is prepared by using Trypticase® soy agar (Becton Dickinson & Company, USA).

[3] = test system: Proteus morganii TN 387; experiment: Synergy with Cefotiam, agar dilution MIC; format: cell-based; details: 18 hours; for MIC of Cefotiam with 1 μg/ml of Compound: Table 4, 1 μg/ml test compound in agar, inoculum 10^8 per ml
Description: as §1

[4] = test system: Enterobacter cloacae IFO 12937; experiment: Synergy with Cefotiam, agar dilution MIC; format: cell-based; details: 18 hours; for MIC of Cefotiam with 1 μg/ml of Compound: Table 4, 1 μg/ml test compound in agar, inoculum 10^8 per ml
Description: as §1

[5] = test system: Proteus vulgaris GN 5297; experiment: Synergy with Cefotiam, agar dilution MIC; format: cell-based; details: 18 hours; for MIC of Cefotiam with 1 μg/ml of Compound: inoculum 10^8 per ml; for MIC of Cefotiam alone: Trypticase soy agar, unit assumed
Description: as §1

[6] = test system: Citrobacter freundii GN 1706; experiment: Synergy with Cefotiam, agar dilution MIC; format: cell-based; details: 18 hours; for MIC of Cefotiam with 1 μg/ml of Compound: inoculum 10^8 per ml; for MIC of Cefotiam alone: Trypticase soy agar, unit assumed
Description: as §1

[7] = test system: Citrobacter freundii IFO 12681; experiment: Synergy with Cefotiam, agar dilution MIC; format: cell-based; details: 18 hours; for MIC of Cefotiam with 1 μg/ml of Compound: Table 3, 1 μg/ml test compound in agar, inoculum 10^8 per ml
Description: as §1

[8] = test system: Enterobacter cloacae TN 587; experiment: Synergy with Cefotiam, agar dilution MIC; format: cell-based; details: 18 hours; for MIC of Cefotiam with 1 μg/ml of Compound: Table 3, 1 μg/ml test compound in agar, inoculum 10^8 per ml
Description: as §1

[9] = test system: Serratia marcescens IFO 12648; experiment: Synergy with Cefotiam, agar dilution MIC; format: cell-based; details: 18 hours; for MIC of Cefotiam with 1 μg/ml of Compound: Table 3, 1 μg/ml test compound in agar, inoculum 10^8 per ml
Description: as §1

[10] = test system: Proteus morganii IFO 3168; experiment: Synergy with Cefotiam, agar dilution MIC; format: cell-based; details: 18 hours; for MIC of Cefotiam with 1 μg/ml of Compound: Table 3, 1 μg/ml test compound in agar, inoculum 10^8 per ml
Description: as §1

[11] = Table 4, 1 μg/ml test compound in agar
[12] = Table 3, 1 μg/ml test compound in agar
[13] = Table 3, inoculum 10^8 per ml, Trypticase soy agar, unit assumed
[14] = Table 4, inoculum 10^8 per ml, Trypticase soy agar, unit assumed

Structure (SMILES)	IC50 [1] [nM]	MIC of Cefotiam with 1 μg/ml of Compound [2]	MIC of Cefotiam with 1 μg/ml of Compound [3]	MIC of Cefotiam with 1 μg/ml of Compound [4]	MIC of Cefotiam with 1 μg/ml of Compound [5, 11]	MIC of Cefotiam with 1 μg/ml of Compound [6, 11]	MIC of Cefotiam with 1 μg/ml of Compound [7]	MIC of Cefotiam with 1 μg/ml of Compound [8]	MIC of Cefotiam with 1 μg/ml of Compound [9]	MIC of Cefotiam with 1 μg/ml of Compound [5, 12]	MIC of Cefotiam with 1 μg/ml of Compound [10]	MIC of Cefotiam with 1 μg/ml of Compound [6, 12]	also measured
CC(C)(C)OC(=O)C(C)(C)ON=C(C(=O)NC1CN(S(=O)(=O)[O-])C1=O)c1csc(NS(=O)(=O)[O-])n1.[Na+].[Na+] (centres unmarked)	9.14	0.39	0.2	0.39	< 0.2	3.13	–	–	–	–	–	–	–
CC(C)ON=C(C(=O)NC1CN(S(=O)(=O)[O-])C1=O)c1csc(NS(C)(=O)=O)n1.[Na+] (centres unmarked)	4.4	–	–	–	–	–	12.5	12.5	200	100	25	100	–
CC(C)ON=C(C(=O)NC1CN(S(=O)(=O)[O-])C1=O)c1csc(=N)n1S(C)(=O)=O.[Na+] (centres unmarked)	4.19	–	–	–	–	–	6.25	3.13	200	100	50	50	–
CN(C)CCn1nnnc1SCC1=C(C(=O)O)N2C(=O)[C@@H](NC(=O)Cc3csc(N)n3)[C@H]2SC1 [Cefotiam, reference compound]	–	–	–	–	–	–	–	–	–	–	–	–	MIC of Cefotiam alone [7, 13]: 200 µg/mL; MIC of Cefotiam alone [2, 14]: 625 µg/mL; MIC of Cefotiam alone [3, 14]: 200 µg/mL; MIC of Cefotiam alone [8, 13]: > 400 µg/mL; MIC of Cefotiam alone [4, 14]: 100 µg/mL; MIC of Cefotiam alone [9, 13]: > 400 µg/mL; MIC of Cefotiam alone ([5]; Table 3, inoculum 10^8 per ml): 100 µg/mL; MIC of Cefotiam alone ([5]; Table 4, inoculum 10^8 per ml): 400 µg/mL; MIC of Cefotiam alone [10, 13]: 400 µg/mL; MIC of Cefotiam alone ([6]; Table 3, inoculum 10^8 per ml): 200 µg/mL; MIC of Cefotiam alone ([6]; Table 4, inoculum 10^8 per ml): 50 µg/mL
COC1(NC(=O)[C@H](NC(=O)N2CCN(N=Cc3ccco3)C2=O)c2ccccc2)CN(S(=O)(=O)O)C1=O (some centres unmarked) [Compound 3]	617	0.39	0.39	3.13	400	12.5	–	–	–	–	–	–	–
Cc1onc(-c2c(Cl)cccc2Cl)c1C(=O)NC1CN(S(=O)(=O)O)C1=O (centres unmarked) [Compound 9]	162	0.39	< 0.2	0.39	100	3.13	–	–	–	–	–	–	–
CON=C(C(=O)NC1CN(S(=O)(=O)O)C1=O)c1csc(N)n1 (centres unmarked) [Compound 12]	4010	< 0.2	25	0.2	25	25	–	–	–	–	–	–	–
CC(C)(C)OC(=O)C(C)(C)ON=C(C(=O)NC1CN(S(=O)(=O)O)C1=O)c1csc(NC(c2ccccc2)(c2ccccc2)c2ccccc2)n1 (centres unmarked) [Compound 27, Sodium 3-[2-(2-tritylaminothiaozl-4-yl)-2-[(1-tert-butoxycarbonyl-1-methylethoxy)imino]acetamido]-2-oxoazetidine-1-sulfonate]	69.5	0.39	< 0.2	0.39	< 0.2	3.13	–	–	–	–	–	–	–
CC(C)ON=C(C(=O)NC1CN(S(=O)(=O)O)C1=O)c1csc(NC(=O)CCl)n1 (centres unmarked) [Compound 28, Sodium 3-[2-(2-chloroacetamidothiazol-4-yl)-2-(1-methylethoxyimino)acetamido]-2-oxoazetidine-1-sulfonae]	2420	–	–	–	–	–	50	50	200	100	100	50	–
CON=C(C(=O)NC1CN(S(=O)(=O)O)C1=O)c1csc(NS(=O)(=O)O)n1 (centres unmarked) [Compound 29]	163	0.39	100	0.78	200	12.5	–	–	–	–	–	–	–
